Results reported in patent US10829500B2, “Pyridyl-triazabicycles” (Hoffmann-La Roche Inc., priority 2014, dated 2020).

Molecular target: BACE1 (Homo sapiens (Human), UniProt P56817)
Assay: Cellular Aβ-lowering assay (Abeta 40 AlphaLISA) in HEK293 APP cells
Assay type: cell-based
Conditions: Aβ 40 in culture supernatant after 18-20 hrs incubation
Protocol: Cellular Aβ-Lowering Assay:
The Abeta 40 AlphaLISA Assay can be used. The HEK293 APP cells were seeded in 96 well Microtiter plates in cell culture medium (Iscove's, plus 10% (v/v) fetal bovine serum, penicillin/streptomycin) to about 80% confluency and the compounds were added at a 3× concentration in ⅓ volume of culture medium (final DMSO concentration was kept at 1% v/v). After 18-20 hrs incubation at 37° C. and 5% CO2 in a humidified incubator, the culture supernatants were harvested for the determination of Aβ 40 concentrations using Perkin-Elmer Human Amyloid beta 1-40 (high specificity) Kit (Cat # AL275C).
In a Perkin-Elmer White Optiplate-384 (Cat #6007290), 2 ul culture supernatants were combined with 2 μl of a 10× AlphaLISA Anti-hAβAcceptor beads+Biotinylated Antibody Anti-Aβ 1-40 Mix (50 μg/mL/5 nM). After 1 hour room temperature incubation, 16 μl of a 1.25× preparation of Streptavidin (SA) Donor beads (25 μg/mL) were added and incubated for 30 minutes in the Dark. Light Emission at 615 nm was then recorded using EnVision-Alpha Reader. Levels of A β 40 in the culture supernatants were calculated as percentage of maximum signal (cells treated with 1% DMSO without inhibitor). The IC50 values were calculated using the Excel XLfit software.

Sequence of BACE1 (P56817 46-501): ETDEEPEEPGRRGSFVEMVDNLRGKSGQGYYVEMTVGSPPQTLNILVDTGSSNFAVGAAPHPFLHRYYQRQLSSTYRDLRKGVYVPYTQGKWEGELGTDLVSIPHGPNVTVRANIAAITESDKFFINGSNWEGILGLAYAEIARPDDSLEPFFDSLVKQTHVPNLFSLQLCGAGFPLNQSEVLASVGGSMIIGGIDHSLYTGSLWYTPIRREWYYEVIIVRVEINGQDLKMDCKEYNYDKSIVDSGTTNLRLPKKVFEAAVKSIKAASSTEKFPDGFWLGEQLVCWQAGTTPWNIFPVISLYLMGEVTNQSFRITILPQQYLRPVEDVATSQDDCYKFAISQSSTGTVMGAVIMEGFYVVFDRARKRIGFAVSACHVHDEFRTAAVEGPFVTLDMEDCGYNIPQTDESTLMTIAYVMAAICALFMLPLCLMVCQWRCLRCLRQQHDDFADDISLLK

C[C@@]1(c2nc(NC(=O)c3ccc(C#N)cn3)ccc2F)CS2(=O)=NCCCCN2C(N)=N1 (stereo in doubt) [Example 2, 5-Cyano-pyridine-2-carboxylic acid [6-((3R,4aS)-1-amino-3-methyl-4a-oxo-3,4,6,7,8,9-hexahydro-4aλ^6-thia-2,5,9a-triaza-benzocyclohepten-3-yl)-5-fluoro-pyridin-2-yl]-amide]
IC50: 49 nM

N#Cc1ccc(C(=O)Nc2ccc(F)c([C@]3(CF)C[S@]4(=O)=NCCCCN4C(N)=N3)n2)nc1 [Example 4, N-[6-[(1S,10S)-8-Amino-10-(fluoromethyl)-1-oxo-1λ^6-thia-2,7,9-triazabicyclo[5.4.0]undeca-1,8-dien-10-yl]-5-fluoropyridin-2-yl]-5-cyanopyridine-2-carboxamide]
IC50: 96 nM

N#Cc1ccc(C(=O)Nc2ccc(F)c([C@]3(CF)C[S@@]4(=O)=NCCCCN4C(N)=N3)n2)nc1 [Example 5, N-[6[(1R,10S)-8-Amino-10-(fluoromethyl)-1-oxo-1λ^6-thia-2,7,9-triazabicyclo[5.4.0]undeca-1,8-dien-10-yl]-5-fluoropyridin-2-yl]-5-cyanopyridine-2-carboxamide]
IC50: 28 nM

Cc1cc(C#N)cnc1C(=O)Nc1ccc(F)c([C@]2(C)C[S@@]3(=O)=NCCCCN3C(N)=N2)n1 [Example 3]
IC50: 36 nM

C[C@@]1(c2nc(NC(=O)c3ccc(C#N)cn3)ccc2F)CS2(=O)=NCCCCN2C(N)=N1 (stereo in doubt) [Example 1, 5-Cyano-pyridine-2-carboxylic acid [6-((3R,4aR)-1-amino-3-methyl-4a-oxo-3,4,6,7,8,9-hexahydro-4aλ^6-thia-2,5,9a-triaza-benzocyclohepten-3-yl)-5-fluoro-pyridin-2-yl]-amide]
IC50: 86 nM
